Test results: US20250304567A1, “PYRROLIDIONE DERIVATIVES AS INHIBITORS OF NF KAPPA B INDUCING KINASE” (priority 2022, published 2025)
Where two headings read alike, the source gives them in different places.

Columns and labels:
[1] = tested on: p-IKKa levels in L363 (NIK translocated multiple myeloma) cells; assay: Effect of compounds on p-IKKa levels in L363 (NIK translocated multiple myeloma) cells (AlphaLISA SureFire Ultra p-IKKa Ser176/180); assay type: cell-based, human; details: average if tested more than once, read-out: Assay 2 IC50
Summary of the method: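 Phospho-IKKa (Ser176/180) in lysates quantified by AlphaLISA after 6 h compound exposure, 11-point threefold dilutions, 0.3% DMSO. L363 cells were pre-stimulated overnight and assayed with 250 ng/ml BAFF and 10 μM MG132; % inhibition fitted sigmoidally for IC50, duplicate curves.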

[2] = target: Recombinant Human NF-kappaB-Inducing Kinase (NIK/MAP3K14) (Homo sapiens, UniProt Q99558); assay: Inhibition of auto-phosphorylation of recombinant human NIK/MAP3K14 activity (AlphaScreen); assay type: biochemical; details: 5 μM ATP, 1 nM NIK, average if tested more than once
Summary of the method: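 AlphaScreen detection of phospho-Ser176/180 after 1 nM GST-NIK auto-phosphorylates for 2 h at 25 °C with 5 μM ATP (50 mM Tris pH 7.5, 0.7% DMSO). IC50s come from sigmoidal curves of % inhibition against log dose, using enzyme-free, ATP-free low controls and full-activity high controls.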

[3] = Homo sapiens, L-363, p-IKKa levels in L363 cells

Sequence of Recombinant Human NF-kappaB-Inducing Kinase (NIK/MAP3K14) (Q99558 whole entry): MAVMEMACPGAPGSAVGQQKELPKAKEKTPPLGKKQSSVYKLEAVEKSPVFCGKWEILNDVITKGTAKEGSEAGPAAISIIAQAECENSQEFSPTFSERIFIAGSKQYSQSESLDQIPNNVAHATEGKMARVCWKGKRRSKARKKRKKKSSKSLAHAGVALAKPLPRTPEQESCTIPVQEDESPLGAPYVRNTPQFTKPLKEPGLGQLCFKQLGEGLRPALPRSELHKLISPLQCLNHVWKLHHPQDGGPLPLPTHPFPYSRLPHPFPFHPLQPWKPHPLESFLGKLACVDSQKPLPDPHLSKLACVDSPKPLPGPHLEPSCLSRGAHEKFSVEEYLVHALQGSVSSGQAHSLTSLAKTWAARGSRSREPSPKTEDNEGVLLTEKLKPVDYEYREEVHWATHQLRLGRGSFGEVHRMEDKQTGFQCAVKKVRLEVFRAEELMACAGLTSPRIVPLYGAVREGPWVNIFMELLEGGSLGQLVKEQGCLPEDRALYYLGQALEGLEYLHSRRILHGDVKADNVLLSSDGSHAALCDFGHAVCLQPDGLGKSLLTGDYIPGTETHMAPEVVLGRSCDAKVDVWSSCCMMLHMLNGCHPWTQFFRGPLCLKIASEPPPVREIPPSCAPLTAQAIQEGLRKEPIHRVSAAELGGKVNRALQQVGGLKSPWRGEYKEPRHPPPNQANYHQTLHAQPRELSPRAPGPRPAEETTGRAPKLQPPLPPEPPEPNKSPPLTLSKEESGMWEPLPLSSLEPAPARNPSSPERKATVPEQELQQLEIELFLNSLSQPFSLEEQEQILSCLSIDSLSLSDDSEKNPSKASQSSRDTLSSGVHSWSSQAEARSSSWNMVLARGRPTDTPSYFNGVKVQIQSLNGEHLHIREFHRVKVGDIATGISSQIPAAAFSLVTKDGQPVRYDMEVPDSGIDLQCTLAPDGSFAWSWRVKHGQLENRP

For `CN1CC[C@@](O)(c2ccnc(-c3ccn(-c4ccnc(Nc5cn(CC(F)F)nc5OC5CC5)n4)n3)c2)C1=O` (single isomer, unassigned) [Example 154, (R)-3-(2-(1-(2-((3-cyclopropoxy-1-(2,2-difluoroethyl)-1H-pyrazol-4-yl)amino)pyrimidin-4-yl)-1H-pyrazol-3-yl)pyridin-4-yl)-3-hydroxy-1-methylpyrrolidin-2-one or (S)-3-(2-(1-(2-((3-cyclopropoxy-1-(2,2-difluoroethyl)-1H-pyrazol-4-yl)amino)pyrimidin-4-yl)-1H-pyrazol-3-yl)pyridin-4-yl)-3-hydroxy-1-methylpyrrolidin-2-one], the IC50 [1, 3] was < 100 nM and the IC50 [2] was < 100 nM.
In the case of `COc1nn(CC(F)F)cc1Nc1nccc(-n2ccc(-c3cc([C@]4(O)CCN(C)C4=O)ccn3)n2)n1` (single isomer, unassigned) [Example 155, (R)-3-(2-(1-(2-((1-(2,2-difluoroethyl)-3-methoxy-1H-pyrazol-4-yl)amino)pyrimidin-4-yl)-1H-pyrazol-3-yl)pyridin-4-yl)-3-hydroxy-1-methylpyrrolidin-2-one or (S)-3-(2-(1-(2-((1-(2,2-difluoroethyl)-3-methoxy-1H-pyrazol-4-yl)amino)pyrimidin-4-yl)-1H-pyrazol-3-yl)pyridin-4-yl)-3-hydroxy-1-methylpyrrolidin-2-one], the IC50 [1, 3] is reported as < 100 nM and the IC50 [2] is reported as < 100 nM.
In the case of `C[C@H](Nc1nccc(-c2nc(-c3cc([C@]4(O)CCN(C)C4=O)ccn3)cs2)n1)c1ccn(C)n1` (single isomer, unassigned) [Example 156, (R)-3-hydroxy-1-methyl-3-(2-(2-(2-(((S)-1-(1-methyl-1H-pyrazol-3-yl)ethyl)amino)pyrimidin-4-yl)thiazol-4-yl)pyridin-4-yl)pyrrolidin-2-one or (S)-3-hydroxy-1-methyl-3-(2-(2-(2-(((S)-1-(1-methyl-1H-pyrazol-3-yl)ethyl)amino)pyrimidin-4-yl)thiazol-4-yl)pyridin-4-yl)pyrrolidin-2-one], the IC50 [1, 3] is reported as 100 to 500 nM and the IC50 [2] is reported as < 100 nM.
With `C[C@@H](Nc1nccc(-c2nc(-c3cc([C@]4(O)CCN(C)C4=O)ccn3)cs2)n1)c1ccn(C)n1` (single isomer, unassigned) [Example 157, (R)-3-hydroxy-1-methyl-3-(2-(2-(2-(((R)-1-(1-methyl-1H-pyrazol-3-yl)ethyl)amino)pyrimidin-4-yl)thiazol-4-yl)pyridin-4-yl)pyrrolidin-2-one or (S)-3-hydroxy-1-methyl-3-(2-(2-(2-(((R)-1-(1-methyl-1H-pyrazol-3-yl)ethyl)amino)pyrimidin-4-yl)thiazol-4-yl)pyridin-4-yl)pyrrolidin-2-one] the IC50 [1, 3] was > 501 nM and the IC50 [2] was 100 to 500 nM.
`CC(Nc1nccc(-c2nc(-c3cc([C@]4(O)CCN(C)C4=O)ccn3)cs2)n1)c1cnn(C)c1` (single isomer, unassigned) [Example 158, (R)-3-hydroxy-1-methyl-3-(2-(2-(2-(((R,S)-1-(1-methyl-1H-pyrazol-4-yl)ethyl)amino)pyrimidin-4-yl)thiazol-4-yl)pyrrolid-4-yl)pyrrolidine-2-one or (S)-3-hydroxy-1-methyl-3-(2-(2-(2-(((R,S)-1-(1-methyl-1H-pyrazol-4-yl)ethyl)amino)pyrimidin-4-yl)thiazol-4-yl)pyrrolid-4-yl)pyrrolidine-2-one] was tested, and the IC50 [1, 3] was 100 to 500 nM and the IC50 [2] was < 100 nM.
In the case of `CN1C[C@H](Nc2nccc(-c3csc(-c4cccc([C@]5(O)CCN(C)C5=O)c4)n3)n2)CC1=O` (single isomer, unassigned) [Example 234], the IC50 [1, 3] is reported as > 501 nM and the IC50 [2] is reported as 100 to 500 nM.
With `CN1C[C@@H](Nc2nccc(-c3csc(-c4cccc([C@]5(O)CCN(C)C5=O)c4)n3)n2)CC1=O` (single isomer, unassigned) [Example 235] the IC50 [1, 3] was > 501 nM and the IC50 [2] was < 100 nM.
For `C[C@@H](Nc1nccc(-c2csc(-c3cccc([C@]4(O)CCN(C)C4=O)c3)n2)n1)c1cn[nH]c1` (single isomer, unassigned) [Example 293], the IC50 ([1]; p-IKKa levels in L363 cells) was 100 to 500 nM and the IC50 [2] was < 100 nM.
In the case of `C[C@H](Nc1nccc(-c2csc(-c3cccc([C@]4(O)CCN(C)C4=O)c3)n2)n1)c1cn[nH]c1` (single isomer, unassigned) [Example 294], the IC50 ([1]; p-IKKa levels in L363 cells) is reported as > 501 nM and the IC50 [2] is reported as < 100 nM.
With `CN1CC[C@@](O)(c2cccc(-c3nc(-c4ccnc(Nc5ccn(C)n5)n4)co3)c2)C1=O` [Example 1, (R)-3-hydroxy-1-methyl-3-(3-(4-(2-((1-methyl-1H-pyrazol-3-yl)amino)pyrimidin-4-yl)oxazol-2-yl)phenyl)pyrrolidin-2-one] the IC50 [1, 3] was 100 to 500 nM and the IC50 [2] was < 100 nM.
In the case of `CN1CC[C@@](O)(c2cccc(-c3ccn(-c4ccnc(Nc5ccn(C)n5)n4)n3)c2)C1=O` [Example 2, (R)-3-hydroxy-1-methyl-3-(3-(1-(2-((1-methyl-1H-pyrazol-3-yl)amino)pyrimidin-4-yl)-1H-pyrazol-3-yl)phenyl)pyrrolidin-2-one], the IC50 [1, 3] is reported as 100 to 500 nM and the IC50 [2] is reported as < 100 nM.
For `CN1CC[C@@](O)(c2cccc(-c3csc(-c4ccnc(Nc5ccn(C)n5)n4)n3)c2)C1=O` [Example 3, (R)-3-hydroxy-1-methyl-3-(3-(2-(2-((1-methyl-1H-pyrazol-3-yl)amino)pyrimidin-4-yl)thiazol-4-yl)phenyl)pyrrolidin-2-one], the IC50 [1, 3] was < 100 nM and the IC50 [2] was < 100 nM.
`CN1CC[C@@](O)(c2cccc(-c3coc(-c4ccnc(Nc5ccn(C)n5)n4)n3)c2)C1=O` [Example 4, (R)-3-hydroxy-1-methyl-3-(3-(2-(2-((1-methyl-1H-pyrazol-3-yl)amino)pyrimidin-4-yl)oxazol-4-yl)phenyl)pyrrolidin-2-one] was tested, and the IC50 [1, 3] was > 501 nM and the IC50 [2] was < 100 nM.
With `CN1CC[C@@](O)(c2cccc(-c3csc(-c4ccnc(Nc5ccnn5C)n4)n3)c2)C1=O` [Example 5, (R)-3-hydroxy-1-methyl-3-(3-(2-(2-((1-methyl-1H-pyrazol-5-yl)amino)pyrimidin-4-yl)thiazol-4-yl)phenyl)pyrrolidin-2-one] the IC50 [1, 3] was < 100 nM and the IC50 [2] was < 100 nM.
For `CN1CC[C@@](O)(c2cccc(-c3nc(-c4ccnc(N)n4)cs3)c2)C1=O` [Example 6, (R)-3-(3-(4-(2-Aminopyrimidin-4-yl)thiazol-2-yl)phenyl)-3-hydroxy-1-methylpyrrolidin-2-one], the IC50 [1, 3] was > 501 nM and the IC50 [2] was 100 to 500 nM.
In the case of `COc1ncccc1Nc1nccc(-c2csc(-c3cccc([C@]4(O)CCN(C)C4=O)c3)n2)n1` [Example 7, (R)-3-Hydroxy-3-(3-(4-(2-((2-methoxypyridin-3-yl)amino)pyrimidin-4-yl)thiazol-2-yl)phenyl)-1-methylpyrrolidin-2-one], the IC50 [1, 3] is reported as 100 to 500 nM and the IC50 [2] is reported as < 100 nM.
`Cc1ncc(C#N)cc1Nc1nccc(-c2csc(-c3cccc([C@]4(O)CCN(C)C4=O)c3)n2)n1` [Example 8, (R)-5-((4-(2-(3-(3-Hydroxy-1-methyl-2-oxopyrrolidin-3-yl)phenyl)thiazol-4-yl)pyrimidin-2-yl)amino)-6-methylnicotinonitrile] was tested, and the IC50 [1, 3] was 100 to 500 nM and the IC50 [2] was < 100 nM.
For `CN1CC[C@@](O)(c2cccc(-c3nc(-c4ccnc(Nc5cn(CC(F)F)nc5OC5CC5)n4)cs3)c2)C1=O` [Example 9, (R)-3-(3-(4-(2-((3-Cyclopropoxy-1-(2,2-difluoroethyl)-1H-pyrazol-4-yl)amino)pyrimidin-4-yl)thiazol-2-yl)phenyl)-3-hydroxy-1-methylpyrrolidin-2-one], the IC50 [1, 3] was < 100 nM and the IC50 [2] was < 100 nM.
For `CNC(=O)c1ccc(C)c(Nc2nccc(-c3csc(-c4cccc([C@]5(O)CCN(C)C5=O)c4)n3)n2)c1` [Example 10, (R)-3-((4-(2-(3-(3-Hydroxy-1-methyl-2-oxopyrrolidin-3-yl)phenyl)thiazol-4-yl)pyrimidin-2-yl)amino)-N,4-dimethylbenzamide], the IC50 [1, 3] was 100 to 500 nM and the IC50 [2] was < 100 nM.
For `COCCOc1nn(CC(F)F)cc1Nc1nccc(-c2csc(-c3cccc([C@]4(O)CCN(C)C4=O)c3)n2)n1` [Example 11, (R)-3-(3-(4-(2-((1-(2,2-Difluoroethyl)-3-(2-methoxyethoxy)-1H-pyrazol-4-yl)amino)pyrimidin-4-yl)thiazol-2-yl)phenyl)-3-hydroxy-1-methylpyrrolidin-2-one], the IC50 [1, 3] was < 100 nM and the IC50 [2] was < 100 nM.
In the case of `CNC(=O)c1cc(Nc2nccc(-c3csc(-c4cccc([C@]5(O)CCN(C)C5=O)c4)n3)n2)c(OC2CC2)cc1F` [Example 12, (R)-4-Cyclopropoxy-2-fluoro-5-((4-(2-(3-(3-hydroxy-1-methyl-2-oxopyrrolidin-3-yl)phenyl)thiazol-4-yl)pyrimidin-2-yl)amino)-N-methylbenzamide], the IC50 [1, 3] is reported as 100 to 500 nM and the IC50 [2] is reported as < 100 nM.
In the case of `CNC(=O)c1cc(Nc2nccc(-c3csc(-c4cccc([C@]5(O)CCN(C)C5=O)c4)n3)n2)n(CC(C)C)n1` [Example 13, (R)-5-((4-(2-(3-(3-Hydroxy-1-methyl-2-oxopyrrolidin-3-yl)phenyl)thiazol-4-yl)pyrimidin-2-yl)amino)-1-isobutyl-N-methyl-1H-pyrazole-3-carboxamide], the IC50 [1, 3] is reported as 100 to 500 nM and the IC50 [2] is reported as < 100 nM.
With `Cc1cc(Nc2nccc(-c3csc(-c4cccc([C@]5(O)CCN(C)C5=O)c4)n3)n2)c(=O)n(C)c1` [Example 14, (R)-3-((4-(2-(3-(3-Hydroxy-1-methyl-2-oxopyrrolidin-3-yl)phenyl)thiazol-4-yl)pyrimidin-2-yl)amino)-1,5-dimethylpyridin-2(1H)-one] the IC50 [1, 3] was 100 to 500 nM and the IC50 [2] was < 100 nM.
